Patent publication US8946299B2, “Use of calixarenes associated with an antibiotic in the treatment of bacterial infections” (Universite de Lorraine, priority 2011, dated 2015)
Where two headings read alike, the source gives them in different places.

Tests used:
[1] = tested on: EcR1: Penicillinase-Producing Escherichia coli without Associated Resistance; assay: Antibiogram, MIC by the VITEK 2 system; assay type: cell-based; conditions: Table A1, category from MIC
Procedure: (§1) 5. Identification and Antibiogram 5.1 EcR1: Penicillinase-Producing Escherichia coli without Associated Resistance
(§2) The bacterial and antibiogram identification is carried out by the VITEK 2 system (bioMérieux) and by the disk diffusion technique.

[2] = tested on: EcR1: Penicillinase-Producing Escherichia coli without Associated Resistance; assay: Antibiogram by the disk diffusion technique; assay type: cell-based; conditions: for Results (diameter): Table A1, category from diameter vs Dmin Dmax; for Diameter: Table A1, disk diffusion
Procedure: as §1, §2

[3] = tested on: EcR2: Cephalosporinase-Hyperproducing Escherichia coli; assay: Antibiogram by the disk diffusion technique; assay type: cell-based; conditions: Table B2; strain EcR2; diameters
Procedure: 5.2 EcR2: Cephalosporinase-Hyperproducing Escherichia coli Having an Associated Resistance to the Aminoglycosides, Quinolones and the Trimethoprim-Sulphamethoxazole Combination
The bacterial and antibiogram identification is carried out by the VITEK 1 system (bioMérieux) and by the disk diffusion technique

[4] = tested on: Pseudomonas aeruginosa strain having a resistance to β-lactams, the trimethoprim-sulphamethoxazole combination and fosfomycin (PaR2); assay type: cell-based; conditions: antibiotic used alone; second figure of the cell; n = 4
Text: (§3) Three reference strains were used, corresponding to those studied for the MICs and MBCs (Minimum Bactericidal Concentration): Escherichia coli ATCC 25922, Staphylococcus aureus ATCC 29213, Pseudomonas aeruginosa ATCC 27853. For each of these strains 3 corresponding clinical isolates were chosen, having various antibiotic-resistance profiles, routinely used in standard fashion: • EcR1, EcR2, EcR3; • SaR1, SaR3, SaR4; • PaR2, PaR3, PaR5.
(§4) 1.3. Procedure: Chessboard Technique
(§5) The bacterial suspension is transferred to a 15 mL Falcon tube, centrifuged for 10 min at 4500 g, then the pellet is re-suspended in 1 mL of sterile distilled water. Suitable dilutions are then prepared in order to obtain a bacterial inoculum between 5·10^5 and 5·10^6 CFU/mL.
(§6) The MICs of the antibiotics were previously determined for each strain, by the method of microdilution in a liquid medium (CLSI (Clinical and Laboratory Standards Institute), 2003).
(§7) The same procedure is followed for the Cx1. […] Thus 64 ATB/Cx1 combinations are obtained.
(§8) The final volume contained in each of the wells must be 100 μL. Two controls must be present on each plate: • column 1 and 12: medium control • column 2 and 11: medium+bacteria control
(§9) Cx1: […] in the wells of […], starting with the lowest concentration.
(§10) ATB: 25 μL in the wells of rows H to A (columns 3 to 11), starting with the lowest concentration.
(§11) 50 μL in each of the wells of columns 2 to 11.
(§12) D2: Reading the Turbidity at 540 Nm.
(§13) The FIC (Fractional Inhibitory Concentration Index) value is determined by the following formula:
(§14) [formula] MICA in combination MICA alone MICB in combination MICB alone
(§15) When FIC≦0.5, there is a synergistic effect between antibiotic A and antibiotic B.
(§16) When 0.5<FIC≦1, there is an additive effect between antibiotic A and antibiotic B.
(§17) When 1<FIC≦4, there is an indifferent effect between antibiotic A and antibiotic B.
(§18) When FIC>4, there is an antagonistic effect between antibiotic A and antibiotic B.
(§19) For each strain and each antibiotic/Cx1 combination, the experiments were repeated a minimum of 3 times.

[5] = tested on: Escherichia coli, Staphylococcus aureus and Pseudomonas aeruginosa strains; assay: Chessboard technique, summary over all strains and combinations tested; assay type: cell-based
Text: as §3, §4
The FIC (Fractional Inhibitory Concentration Index) value is determined by the following formula: […]
as §19

[6] = tested on: cephalosporinase-hyperproducing strain of Escherichia coli (EcR2); assay: Chessboard technique: MICs alone and synergism of Cx1 combinations; assay type: cell-based; conditions: antibiotic used alone; second figure of the cell; n = 4
Text: as §3, §4, §5, §6, §7, §8, §9, §10, §11, §12, §13, §14, §15, §16, §17, §18, §19

[7] = tested on: Pseudomonas aeruginosa strain having a resistance to β-lactams (including the carbapenems), aminoglycosides, the trimethoprim-sulphamethoxazole combination and …; assay: as above; assay type: cell-based; conditions: antibiotic used alone; second figure of the cell; n = 4
Text: as §3, §4, §5, §6, §7, §8, §9, §10, §11, §12, §13, §14, §15, §16, §17, §18, §19

[8] = tested on: Pseudomonas aeruginosa strain ATCC 27853 (wild type); assay: as above; assay type: cell-based; conditions: antibiotic used alone; second figure of the cell; n = 4
Text: as §3, §4, §5, §6, §7, §8, §9, §10, §11, §12, §13, §14, §15, §16, §17, §18, §19

[9] = tested on: mucoid strain of Pseudomonas aeruginosa having a resistance to rifampicin and the trimethoprim-sulphamethoxazole combination (PaR5); assay: as above; assay type: cell-based; conditions: antibiotic used alone; second figure of the cell; n = 4
Text: as §3, §4, §5, §6, §7, §8, §9, §10, §11, §12, §13, §14, §15, §16, §17, §18, §19

[10] = tested on: ESBL-producing strain of Escherichia coli (EcR3); assay: as above; assay type: cell-based; conditions: antibiotic used alone; second figure of the cell; n = 4
Text: as §3, §4, §5, §6, §7, §8, §9, §10, §11, §12, §13, §14, §15, §16, §17, §18, §19

[11] = tested on: SaR4: Meticillin-Resistant Staphylococcus aureus; assay: Antibiogram, MIC by the VITEK 2 system; assay type: cell-based
Procedure: 5.6 SaR4: Meticillin-Resistant Staphylococcus aureus Having an Associated Resistance to the Aminoglycosides, Fluoroquinolones, Macrolides-Lincosamines-Synergistins and Ofloxacin The bacterial and antibiogram identification is carried out by the VITEK 2 system (bioMérieux) and by the disk diffusion technique
(§20) 5.7 PaR2: Pseudomonas aeruginosa Having an Associated Resistance to the β-Lactams, the Trimethoprim-Sulphamethoxazole Combination and Fosfomycin The bacterial and antibiogram identification is carried out by the VITEK 2 system (bioMérieux) and by the disk diffusion technique

[12] = tested on: Staphylococcus aureus strain ATCC 29213 (wild type); assay: Chessboard technique: MICs alone and synergism of Cx1 combinations; assay type: cell-based
Text: as §3, §4, §5, §6, §7, §8, §9, §10, §11, §12, §13, §14, §15, §16, §17, §18, §19

[13] = tested on: MRSA strain without associated resistance (SaR1); assay: as above; assay type: cell-based, Staphylococcus aureus
Text: as §3, §4, §5, §6, §7, §8, §9, §10, §11, §12, §13, §14, §15, §16, §17, §18, §19

[14] = as above; assay type: cell-based, Staphylococcus aureus; conditions: Staphylococcus aureus, MRSA, read-out: MIC (antibiotic)
Text: as §3, §4, §5, §6, §7, §8, §9, §10, §11, §12, §13, §14, §15, §16, §17, §18, §19

[15] = tested on: MRSA strain having a resistance to the aminoglycosides and fluoroquinolones (SaR3); assay: as above; assay type: cell-based, Staphylococcus aureus
Text: as §3, §4, §5, §6, §7, §8, §9, §10, §11, §12, §13, §14, §15, §16, §17, §18, §19

[16] = tested on: PaR5: Pseudomonas aeruginosa; assay: Antibiogram by the disk diffusion technique; assay type: cell-based; design: unit not given here; conditions: Table I1; strain PaR5
[17] = tested on: PaR2: Pseudomonas aeruginosa; assay type: cell-based; conditions: Table G1; strain PaR2
Procedure: as §20

[18] = tested on: EcR3: ESBL-Producing Escherichia coli; assay: Antibiogram by the disk diffusion technique; assay type: cell-based; conditions: Table C1; strain EcR3
Procedure: 5.3 EcR3: ESBL-Producing Escherichia coli with Associated Resistance to the Aminoglycosides, Rifampicin and the Trimethoprim-Sulphamethoxazole Combination
The bacterial and antibiogram identification is carried out by the VITEK 2 system (bioMérieux) and by the disk diffusion technique

[19] = tested on: SaR1: Meticillin-Resistant Staphylococcus aureus without Associated Resistance; assay: Antibiogram by the VITEK 2 system; assay type: cell-based; conditions: Table D1; strain SaR1
Procedure: 5.4 SaR1: Meticillin-Resistant Staphylococcus aureus without Associated Resistance
The bacterial and antibiogram identification is carried out by the VITEK 2 system (bioMérieux)
February 2006: Detection of the gene mecA by the PCR technique: POSITIVE Expert finding July 2006: totally typical phenotype: modification of the PLPs The fluctuations relative to the type of associated resistance for certain strains between Tables D1 and D2 are due to the development of the French (CA-SFM), European (EUCAST) and American (CLSI) recommendations for the categorization of bacterial strains. 5.5 SaR3: Meticillin-Resistant Staphylococcus aureus Having an Associated Resistance to the Aminoglycosides and Fluoroquinolones The bacterial and antibiogram identification is carried out by the VITEK 2 system (bioMérieux) and by the disk diffusion technique

[20] = tested on: Escherichia coli strain ATCC 25922 (wild type); assay: Chessboard technique: MICs alone and synergism of Cx1 combinations; assay type: cell-based; conditions: antibiotic used alone; second figure of the cell; n = 4
Text: as §3, §4, §5, §6, §7, §8, §9, §10, §11, §12, §13, §14, §15, §16, §17, §18, §19

[21] = tested on: penicillinase-producing strain of Escherichia coli without associated resistance (EcR1); assay: as above; assay type: cell-based; conditions: antibiotic used alone; second figure of the cell; n = 4
Text: as §3, §4, §5, §6, §7, §8, §9, §10, §11, §12, §13, §14, §15, §16, §17, §18, §19

[22] = tested on: SaR3: Meticillin-Resistant Staphylococcus aureus; assay: Antibiogram by the disk diffusion technique; assay type: cell-based; conditions: Table E1; strain SaR3
[23] = tested on: MRSA strain having a resistance to the aminoglycosides, fluoroquinolones, macrolides-lincosamides-synergistins and ofloxacin (SaR4); assay: Chessboard technique: MICs alone and synergism of Cx1 combinations; assay type: cell-based, Staphylococcus aureus; conditions: antibiotic used alone; second figure of the cell; n = 4
Text: as §3, §4, §5, §6, §7, §8, §9, §10, §11, §12, §13, §14, §15, §16, §17, §18, §19

[24] = Staphylococcus aureus, MRSA, read-out: MIC (antibiotic)
[25] = antibiotic used alone, second figure of the cell, n = 4

## NC[C@H]1O[C@H](O[C@H]2[C@H](O)[C@@H](O[C@H]3O[C@H](CO)[C@@H](O)[C@H](N)[C@H]3O)[C@H](N)C[C@@H]2N)[C@H](N)C[C@@H]1O [Tobramycin]
[1]
  Results (MIC): Susceptible
[2]
  Results (diameter): Susceptible
[3]
  diameter in mm: 10 mm
[4]
  MIC (antibiotic): 1 µg/mL
[5]
  nature of the interaction between Cx1 and the antibiotic: synergism
[6]
  Initial MICs (antibiotic): 4 mg/L
[7]
  MIC (antibiotic): 64 µg/mL
[8]
  MIC (antibiotic): 0.5 µg/mL
[9]
  MIC (antibiotic): 1 µg/mL
[10]
  Initial MICs (antibiotic): 4 mg/L

## CN[C@H](CC(C)C)C(=O)N[C@H]1C(=O)N[C@@H](CC(N)=O)C(=O)N[C@H]2C(=O)N[C@H]3C(=O)N[C@H](C(=O)N[C@H](C(=O)O)c4cc(O)cc(O)c4-c4cc3ccc4O)[C@H](O)c3ccc(c(Cl)c3)Oc3cc2cc(c3O[C@@H]2O[C@H](CO)[C@@H](O)[C@H](O)[C@H]2O[C@H]2C[C@](C)(N)[C@H](O)[C@H](C)O2)Oc2ccc(cc2Cl)[C@H]1O [Vancomycin]
[11]; Staphylococcus aureus, read-out: MIC mg/L
  MIC: 1 mg/L
[11]; Table F2, strain SaR4, cells of the mixed column that are MICs
  MIC: 1 mg/L
[12]; Staphylococcus aureus, ATCC29213, read-out: Initials MIC (antibiotic)
  MIC: 0.5 µg/mL
[13]; [24]
  MIC: 0.25 µg/mL
[14]
  MIC: 0.25 µg/mL
[15]; [24]
  MIC: 0.25 µg/mL

## Colimycin
[16]
  Diameter: 23
[17]
  Diameter: 20
[2]
  Results (diameter): Susceptible
  Diameter: 15
[2]; Table A2, diameter
  diameter in mm: 15 mm
[4]
  MIC (antibiotic): 8 µg/mL
[18]
  Diameter: 16
[7]
  MIC (antibiotic): 8 µg/mL
[8]
  MIC (antibiotic): 4 µg/mL
[9]
  MIC (antibiotic): 16 µg/mL

## Gentamicin
[16]
  Diameter: 25
[1]
  Results (MIC): Susceptible
[19]
  Diameter: 23
[2]
  Results (diameter): Susceptible
  Diameter: 20
[5]
  nature of the interaction between Cx1 and the antibiotic: synergism
[20]
  Initial MICs (antibiotic): 0.125 mg/L
[6]
  Initial MICs (antibiotic): 2/2 mg/L
[21]
  Initial MICs (antibiotic): 0.125 mg/L
[12]; [25]
  Initials MIC (antibiotic): 0.25 µg/mL
[10]
  Initial MICs (antibiotic): 2/2 mg/L
[22]
  Diameter: 20
[13]; [25]
  MIC (antibiotic): 0.25 µg/mL
[15]; [25]
  MIC (antibiotic): 0.125 µg/mL
[23]
  MIC (antibiotic): 0.25 µg/mL

## Pristinamycin
[19]
  Diameter: 25
[22]
  Diameter: 23
